# Measurements as given in patent US20110105389A1 (priority 2009, published 2011).
# Where two headings read alike, the source gives them in different places.
# Columns and labels:
# [1] = target: T1, human ghrelin receptor (GRLN, growth hormone secretagogue receptor, hGHS-R1a) (Homo sapiens, UniProt Q92847); assay: Competitive radioligand binding assay (ghrelin receptor), Method B1
# T1 construct: purchased PerkinElmer BioSignal #RBHGHSM, lot#1887; host or cells: HEK-293 cells, stably transfected (membranes)
# T1 sequence (Q92847 whole entry): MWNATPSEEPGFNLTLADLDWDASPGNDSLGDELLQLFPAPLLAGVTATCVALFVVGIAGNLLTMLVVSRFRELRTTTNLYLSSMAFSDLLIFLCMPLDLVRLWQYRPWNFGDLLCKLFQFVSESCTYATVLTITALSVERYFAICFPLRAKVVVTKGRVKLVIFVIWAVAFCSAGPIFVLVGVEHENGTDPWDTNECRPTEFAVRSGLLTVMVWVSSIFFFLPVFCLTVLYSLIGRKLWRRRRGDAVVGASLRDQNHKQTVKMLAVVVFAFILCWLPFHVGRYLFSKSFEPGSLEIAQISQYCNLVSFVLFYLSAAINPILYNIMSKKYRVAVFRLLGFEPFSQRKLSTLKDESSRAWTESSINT
# Protocol: Multiscreen Harvest plates-GF/C (Millipore, #MAHFC1H60) • 4. […] Bottom seal (Millipore, #MATAH0P00) • 7. […] Binding Buffer: 25 mM Hepes (pH 7.4), 1 mM CaCl2, 5 mM MgCl2. 2.5 mM EDTA, 0.4% BSA
# Competition experiments were performed in a 300 μl filtration assay format. • 1. 220 μL of membranes diluted in binding buffer • 2. 40 μL of compound diluted in binding buffer • 3.
# Compounds were provided frozen on dry ice at a stock concentration of 10 mM diluted in 100% DMSO and stored at −80° C. until the day of testing. On the test day, compounds were allowed to thaw at rt overnight and then diluted in assay buffer according to the desired test concentrations. Under these conditions, the maximal final DMSO concentration in the assay was 0.1%.
# Plates were sealed with TopSeal-A, vortexed gently and incubated at rt for 30 min. The reaction was arrested by filtering samples through Multiscreen Harvest plates (pre-soaked in 0.5% polyethyleneimine) using a Tomtec Harvester, washed 9 times with 500 μL of cold 50 mM Tris-HCl (pH 7.4, 4° C.), and then plates were air-dried in a fumehood for 30 min. A bottom seal was applied to the plates prior to the addition of 25 μL of MicroScint-0 to each well. Plates were than sealed with TopSeal-A and counted for 30 sec per well on a TopCount Microplate Scintillation and Luminescence Counter (PerkinElmer) using a count delay of 60 sec. Results were expressed as counts per minute (cpm).
# Data were analyzed by GraphPad Prism (GraphPad Software, San Diego, Calif.) using a variable slope non-linear regression analysis. […] Dmax values were calculated using the following formula: […]
# [2] = target: T2, ghrelin receptor (HEK-GHSR1 stable cells) (Homo sapiens, UniProt Q92847); assay: Ghrelin receptor inverse agonist assay (HTRF IP-one), Method B4; format: cell-based; settings: inverse agonist at the ghrelin receptor, Method B4
# T2 construct: expressed in transfected cells
# T2 sequence (Q92847 whole entry): as above
# Text: B4. Ghrelin Receptor Inverse Agonist Assay […]
# In addition, the following method can be utilized to assay for inverse agonist activity. (Thomsen, W.; et al. Curr. Opin. Biotechnol. 2005, 16, 655-665; Tozawa-Takahashi F; et al., 11th SBS Annual Conference. September 2005, Geneva; Trinquet, E.; Fink, M.; Bazin, H.; et al. Anal. Biochem. 2006, 358, 126-135; Bergsdorf, C.; Kropp-Goerkis, C.; Kaehler, I.; Ketscher, L.; Boerner, U.; Parczyk, K.; Bader, B. Assay Drug Dev. Technol. 2008, 6, 39-53.)
# • 1. Remove culture medium from the plate by inversion. • 2. Add 70 μl of compound/well. • 3. Incubate 30 min at 37° C. • 4. Stop the reaction by adding 15 μl of lysis buffer/well. • 5. Add 15 μl of d2/well. • 6. Add 15 μl of Anti-IP1 cryptate/well. • 7. Incubate 1 h at room temp on an orbital shaker at 100 RPM. • 8. Read the fluorescence in a plate reader (Tecan GeniosPro or similar)
# The above sequence was performed using the HTRF IP-one kit (CisBio cat#62P1APEC). For the simultaneous assay of multiple test compounds, 96-well plates can be utilized in this assay (white plate with flat-bottom well, Falcon #353296). These were seeded overnight with 100 000 of HEK-GHSR1 stable cells/well. • Wells A1 and A2 of each plate are used as negative control (wells without d2). Compounds are typically tested in replicate at the following concentrations:
# Compounds are stored at 10 mM in 100% DMSO.
# 1st dilution 1/10 in 100% DMSO (1 mM final concentration).
# 2nd dilution 1/10 in H2O (0.1 mM final concentration).
# Other dilutions are performed in a 96-well plate in stimulation buffer.
# The results for representative compounds of the invention are provided in the Examples.
# [3] = target: T3, GHS-R1a receptor (HEK293 cells expressing GHS-R1a receptor) (Homo sapiens, UniProt Q92847); assay: Fluorescence functional assay (ghrelin receptor), Method B2, agonist and antagonist mode; format: cell-based; settings: functional activity as an antagonist at the ghrelin receptor, Methods B2 and B3
# T3 construct: host or cells: HEK293
# T3 sequence (Q92847 whole entry): as above
# Protocol: • 1. ImageTrak Epi-Fluorescence system (Perkin-Elmer) • 2. MultiDrop TiterTek • 3. CO2 incubators: 5% CO2, humidified, 37° C.
# • 1. Hanks' BSS without phenol red (Life Technologies) • 2. Hepes buffer • 3. Probenecid (Sigma) • 4. […] Falcon cell culture 96-well black/clear bottom plates • 6. 0.05% trypsin-EDTA • 7. Cells: HEK293 cells expressing GHS-R1a receptor (Perkin-Elmer BioSignal) were grown in DMEM (Dulbecco's Modified Eagles Medium) with 10% FBS, 1% sodium pyruvate, 1% NEAA and 400 μg/mL geneticin • 8. […] [D-Lys^3]-GHRP-6 (reference antagonist, Phoenix #031-22) • 10. Assay buffer: HBSS-20 mM Hepes containing 2.5 mM probenecid and 0.1% BSA (bovine serum albumin); pH 7.4
# Stock solutions of compounds (10 mM in 100% DMSO) were provided frozen on dry ice and stored at −80° C. prior to use. […] Assay plates were then prepared by appropriate dilution in assay buffer.
# Typical Final Test Concentrations (N=10) for Test Compounds (agonist):
# Typical Final Test Concentrations (N=10) for Test Compounds (antagonist):
# Cells were maintained in culture as indicated above. The cells were harvested at a confluency of 70-90% the day before the experiment. Growth medium was removed and the cells rinsed briefly with PBS without Ca^+2 and Mg^+2. 0.05% Trypsin was added and the plates incubated at 37° C. for 5 min to detach the cells. DMEM medium supplemented with 10% FBS was added to inactivate the trypsin and determine the cell concentration. The inoculum was adjusted to a final concentration of 200 cells/μL and dispensed at 200 μL per well into a 96-well block plate. The plates were, incubated at 37° C. overnight.
# The plates were removed from the incubator and the media removed by inversion of the plates. Calcium-3 dye, 50 μL, was loaded and then incubated for 1 h at 37° C. The plate was again inverted and then 25 μL of assay buffer added. The plates were then transferred to the ImageTrak system for analysis. For agonist testing, after reading for ten (10) sec, 25 μL of 2× test compound or control was injected into the assay plate. Fluorescence was monitored for an additional 50 sec. A reading was taken every two (2) seconds for a total of 30 readings per assay point.
# For antagonist testing, after reading for ten (10) sec, 12.5 μL of 3× test compound or control was injected into the assay plate and allowed to react for three (3) min.
# Concentration response curves were analyzed using GraphPad Prism (GraphPad Software, San Diego, Calif.) by non-linear regression analysis (sigmoidal dose-response). EC50 values are calculated using GraphPad.
# Emax values were calculated using the following formula: […]
# Concentration response curves were analyzed using GraphPad Prism (GraphPad Software, San Diego, Calif.) by non-linear regression analysis (sigmoidal dose-response). IC50 values are calculated using GraphPad.
# Imax values were calculated using the following formula: […]
# [4] = Ghrelin receptor binding activity, Method B1
SMILES,"IC50 [1, 4]","Ki [1, 4]",IC50 [2],Antagonist Activity [3],Ki [1]
CCC(C)[C@@H]1NCCOc2ccccc2CC[C@H](C)NC(=O)[C@@H](Cc2ccccc2)NC(=O)[C@H](C(C)O)N(C)C1=O (some centres unmarked) [Compound 1302],10 to 100 nM,1 to 10 nM,–,C (C = 10-100 nM),–
CC(O)[C@H]1C(=O)N[C@H](Cc2ccccc2)C(=O)NC/C=C/c2ccccc2OCCN[C@@H](C2CCCCC2)C(=O)N1C (some centres unmarked) [Compound 1304],–,10 to 100 nM,–,C (C = 10-100 nM),–
CCC(C)[C@@H]1NCCOc2ccccc2/C=C/[C@H](C)NC(=O)[C@@H](Cc2ccccc2)NC(=O)[C@H](C(C)O)N(C)C1=O (some centres unmarked) [Compound 1316],10 to 100 nM,10 to 100 nM,–,D (D = 100-500 nM),–
CCC(C)[C@@H]1NCCOc2ccccc2/C=C/CNC(=O)[C@@H](Cc2cccs2)NC(=O)[C@H](C(C)O)N(C)C1=O (some centres unmarked) [Compound 1332],100 to 500 nM,10 to 100 nM,–,D (D = 100-500 nM),–
CCC(C)[C@@H]1NCCOc2cc(F)ccc2CCCNC(=O)[C@@H](Cc2ccccc2)NC(=O)[C@H](C(C)O)N(C)C1=O (some centres unmarked) [Compound 1343],–,–,–,C (C = 10-100 nM),1 to 10 nM
CC(O)[C@H]1C(=O)N[C@H](Cc2c[nH]c3ccccc23)C(=O)N[C@H](C)CCc2cc(F)ccc2OCCN[C@@H](C2CC2)C(=O)N1C (some centres unmarked) [Compound 1442],–,–,–,C (C = 10-100 nM),–
COc1cccc(C[C@H]2NC(=O)[C@H](C(C)O)N(C)C(=O)[C@H](C(C)C)NCCOc3cccc(F)c3CC[C@@H](C)NC2=O)c1 (some centres unmarked) [Compound 1446],–,–,–,B (B = 1-10 nM),–
CC(C)[C@@H]1NCCOc2cc(F)ccc2CCCNC(=O)[C@@H](Cc2cccc(Cl)c2)NC(=O)[C@H](C(C)O)N(C)C1=O (some centres unmarked) [Compound 1460],–,–,–,B (B = 1-10 nM),–
CC(C)[C@@H]1NCCOc2cc(F)ccc2CC[C@@H](C)NC(=O)[C@@H](Cc2ccc(F)cc2)NC(=O)[C@H](C(C)O)N(C)C1=O (some centres unmarked) [Compound 1464],–,–,–,B (B = 1-10 nM),–
CC(O)[C@H]1C(=O)N[C@H](Cc2ccc(F)cc2)C(=O)N[C@H](C)CCc2ccccc2OCCN[C@@H](C2CCCCC2)C(=O)N1C (some centres unmarked) [Compound 1743],10 to 100 nM,–,100 to 500 nM,–,–
CC(O)[C@H]1C(=O)N[C@H](Cc2ccc(Cl)cc2)C(=O)NC/C=C/c2ccccc2OCCN[C@@H](C(C)(C)C)C(=O)N1C (some centres unmarked) [Compound 1768],10 to 100 nM,–,10 to 50 nM,–,–
CCC(C)C1NCCOc2ccccc2C=CCNC(=O)C(Cc2ccccc2OC)NC(=O)C(C(C)O)N(C)C1=O (centres unmarked) [Compound 1795],1 to 10 nM,–,100 to 500 nM,–,–
CCC1CCc2ccc(Cl)cc2OCCNC(C(C)C)C(=O)N(C)C(C(C)O)C(=O)NC(Cc2ccccc2)C(=O)N1 (centres unmarked) [Compound 1813],100 to 500 nM,–,100 to 500 nM,–,–
CCC1CCc2ccc(Cl)cc2OCCNC(C(C)C)C(=O)N(C)C(C(C)O)C(=O)NC(Cc2cccc(F)c2)C(=O)N1 (centres unmarked) [Compound 1814],100 to 500 nM,–,100 to 500 nM,–,–
CCC1CCc2ccc(F)cc2OCCNC(C(C)C)C(=O)N(C)C(C(C)O)C(=O)NC(Cc2ccco2)C(=O)N1 (centres unmarked) [Compound 1824],10 to 100 nM,–,100 to 500 nM,–,–
CCC(C)C1NCCOc2ccccc2C=CCNC(=O)C(Cc2c[nH]c3ccc(F)cc23)NC(=O)C(C(C)O)N(C)C1=O (centres unmarked) [Compound 1827],10 to 100 nM,–,100 to 500 nM,–,–

# Next, values leading:
"IC50 [1, 4]","Ki [1, 4]",IC50 [2],Antagonist Activity [3],Ki [1],SMILES
10 to 100 nM,10 to 100 nM,100 to 500 nM,–,–,CCC(C)C1NCCOc2ccccc2CC(C)CNC(=O)C(Cc2ccccc2)NC(=O)C(C(C)O)N(C)C1=O (mixture of isomers) [Compound 1338]
10 to 100 nM,1 to 10 nM,–,C (C = 10-100 nM),–,CC(O)[C@H]1C(=O)N[C@H](Cc2ccccc2)C(=O)N[C@@H](C)/C=C/c2ccccc2OCCN[C@@H](C2CC2)C(=O)N1C (some centres unmarked) [Compound 1317]
–,–,10 to 50 nM,–,–,CC1CCc2ccccc2OCCNC(C(C)C)C(=O)N(C)C(C(C)O)C(=O)NC(Cc2c[nH]c3ncccc23)C(=O)N1 (centres unmarked) [Compound 1408]
–,–,–,B (B = 1-10 nM),–,CC(C)[C@@H]1NCCOc2cc(F)ccc2CC[C@@H](C)NC(=O)[C@@H](Cc2c[nH]c3ccccc23)NC(=O)[C@H](C(C)O)N(C)C1=O (some centres unmarked) [Compound 1455]
10 to 100 nM,–,100 to 500 nM,–,–,CC(O)[C@H]1C(=O)N[C@H](Cc2ccc(Cl)cc2)C(=O)NC/C=C/c2ccccc2OCCN[C@@H](C2CCCCC2)C(=O)N1C (some centres unmarked) [Compound 1710]
1 to 10 nM,–,10 to 50 nM,–,–,CC1CCc2ccccc2OCCNC(C(C)(C)C)C(=O)N(C)C(C(C)O)C(=O)NC(Cc2cccc(F)c2)C(=O)N1 (centres unmarked) [Compound 1796]
10 to 100 nM,–,100 to 500 nM,–,–,CC(O)C1C(=O)NC(Cc2ccccc2)C(=O)NCC2CCc3cccc(c3C2)OCCNC(C2CCCCC2)C(=O)N1C (centres unmarked) [Compound 1797]
1 to 10 nM,–,100 to 500 nM,–,–,CCC(C)C1NCCOc2cccc3c2CC(CC3)CNC(=O)C(Cc2ccccc2)NC(=O)C(C(C)O)N(C)C1=O (centres unmarked) [Compound 1798]
1 to 10 nM,–,10 to 50 nM,–,–,Cc1ccc2[nH]cc(CC3NC(=O)C(C(C)O)N(C)C(=O)C(C(C)C)NCCOc4ccccc4CCC(C)NC3=O)c2c1 (centres unmarked) [Compound 1802]
10 to 100 nM,–,100 to 500 nM,–,–,CC(C)C1NCCOc2cccc(F)c2C=CCNC(=O)C(C(C)c2ccccc2)NC(=O)C(C(C)O)N(C)C1=O (centres unmarked) [Compound 1811]
10 to 100 nM,–,100 to 500 nM,–,–,CCC1CCc2ccc(F)cc2OCCNC(CC)C(=O)N(C)C(C(C)O)C(=O)NC(Cc2c[nH]c3ccccc23)C(=O)N1 (centres unmarked) [Compound 1853]
